Calls of active or inactive are those of the source. The rule behind the calls is not given here.

Experiment [1] deals with T1, 5-hydroxytryptamine receptor 2A (Homo sapiens, UniProt P28223). Briefly: Displacement of [3H]ketanserin from human recombinant 5-HT2A receptor expressed in HEKT cell membrane after 90 mins by scintillation counting method. It is filed as cell-based. On the technique in general: Loss of bound radioactivity is the signal in a displacement assay; it reports binding, not function.

The target of experiment [2] is T2, 5-hydroxytryptamine receptor 2B (Homo sapiens, UniProt P41595). As to the kind of experiment: Displacement of [3H]LSD from human recombinant 5-HT2B receptor stably expressed in HEK cell membrane after 90 mins by scintillation counting method. It counts as cell membranes, HEK293.
In experiment [3] the target is T3, 5-hydroxytryptamine receptor 2C (Homo sapiens, UniProt P28335).
T3 sequence (P28335 whole entry): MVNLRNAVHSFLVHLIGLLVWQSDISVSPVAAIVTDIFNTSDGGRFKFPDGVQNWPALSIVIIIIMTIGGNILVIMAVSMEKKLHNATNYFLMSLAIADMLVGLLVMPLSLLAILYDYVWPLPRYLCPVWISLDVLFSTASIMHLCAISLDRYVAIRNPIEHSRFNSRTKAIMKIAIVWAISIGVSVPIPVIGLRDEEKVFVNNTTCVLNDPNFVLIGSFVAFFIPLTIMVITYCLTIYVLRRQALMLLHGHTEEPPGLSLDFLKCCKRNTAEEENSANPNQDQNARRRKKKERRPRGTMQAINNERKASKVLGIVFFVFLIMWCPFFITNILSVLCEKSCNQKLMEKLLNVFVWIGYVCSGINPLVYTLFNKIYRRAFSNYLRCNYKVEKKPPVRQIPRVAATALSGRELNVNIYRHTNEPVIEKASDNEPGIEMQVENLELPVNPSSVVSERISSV
Briefly: Displacement of [3H]mesulergine from human recombinant 5-HT2C receptor expressed in Flp-IN HEK cell membrane after 90 mins by scintillation counting method. It counts as cell membranes, HEK293.

Experiment [4] concerns the target T4, 5-hydroxytryptamine receptor 2C (Homo sapiens) (UniProt P28335).
T4 sequence (whole entry): T3 sequence (P28335 whole entry)
As to the kind of experiment: Displacement of [3H]mesulergine from human recombinant 5-HT2C receptor expressed in Flp-IN HEK cell membrane at 10 uM after 90 mins by scintillation counting method. Conditions: HEK293. It is filed as cell membranes.

Experiment [5] concerns HEK293. Briefly: Selectivity ratio of Ki for human recombinant 5-HT2A receptor expressed in HEKT cell membrane to Ki for human recombinant 5-HT2B receptor stably expressed in HEK cells. It counts as cell-based.
Experiment [6] relates to HEK293. As to the kind of experiment: Selectivity ratio of Ki for human recombinant 5-HT2C receptor to Ki for human recombinant 5-HT2B receptor stably expressed in HEK cell membrane. It counts as cell-based.
Experiment [7] has as its target T2, 5-hydroxytryptamine receptor 2B. Briefly: Antagonist activity at human recombinant 5-HT2B receptor expressed in Flp-In HEK cells in the presence of agonist preincubated for 10 mins by FLIPR based calcium mobilization assay. It counts as functional, cell-based, HEK293. On the technique in general: Calcium assays in cells follow changes in intracellular calcium, usually with a dye or a luminescent sensor.

Experiment [8] deals with T1, 5-hydroxytryptamine receptor 2A. As to the kind of experiment: Displacement of [3H]ketanserin from human recombinant 5-HT2A receptor expressed in HEKT cell membrane at 10 uM after 90 mins by scintillation counting method. It counts as cell membranes.
In experiment [9] the target is T2, 5-hydroxytryptamine receptor 2B. As to the kind of experiment: Displacement of [3H]LSD from human recombinant 5-HT2B receptor stably expressed in HEK cell membrane at 10 uM after 90 mins by scintillation counting method. The following applies: HEK293. It is filed as cell membranes.
For experiment [10] the target is unchanged. As to the kind of experiment: Agonist activity at human recombinant 5-HT2B receptor expressed in Flp-In HEK cells preincubated for 10 mins by FLIPR based calcium mobilization assay. It counts as functional, cell-based. The following applies: HEK293.
For experiment [11] the target is unchanged. Briefly: Antagonist activity at human recombinant 5-HT2B receptor expressed in Flp-In HEK cells at 10 uM in the presence of agonist preincubated for 10 mins by FLIPR based calcium mobilization assay. It is filed as functional, cell-based. Conditions: HEK293.

T1 sequence (P28223 whole entry): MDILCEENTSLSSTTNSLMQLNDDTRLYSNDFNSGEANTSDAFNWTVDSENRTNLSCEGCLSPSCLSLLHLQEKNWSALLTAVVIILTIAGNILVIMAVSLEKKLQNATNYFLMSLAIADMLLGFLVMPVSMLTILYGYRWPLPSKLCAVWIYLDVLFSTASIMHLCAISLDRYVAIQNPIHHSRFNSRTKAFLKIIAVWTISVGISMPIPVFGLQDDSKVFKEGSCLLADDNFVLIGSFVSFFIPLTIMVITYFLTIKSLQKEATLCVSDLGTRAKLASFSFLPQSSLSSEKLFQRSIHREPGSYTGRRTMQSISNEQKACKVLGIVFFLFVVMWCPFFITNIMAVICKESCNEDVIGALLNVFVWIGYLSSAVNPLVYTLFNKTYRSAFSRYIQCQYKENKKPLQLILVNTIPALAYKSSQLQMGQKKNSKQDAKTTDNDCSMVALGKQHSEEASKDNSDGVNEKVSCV
T2 sequence (P41595 whole entry): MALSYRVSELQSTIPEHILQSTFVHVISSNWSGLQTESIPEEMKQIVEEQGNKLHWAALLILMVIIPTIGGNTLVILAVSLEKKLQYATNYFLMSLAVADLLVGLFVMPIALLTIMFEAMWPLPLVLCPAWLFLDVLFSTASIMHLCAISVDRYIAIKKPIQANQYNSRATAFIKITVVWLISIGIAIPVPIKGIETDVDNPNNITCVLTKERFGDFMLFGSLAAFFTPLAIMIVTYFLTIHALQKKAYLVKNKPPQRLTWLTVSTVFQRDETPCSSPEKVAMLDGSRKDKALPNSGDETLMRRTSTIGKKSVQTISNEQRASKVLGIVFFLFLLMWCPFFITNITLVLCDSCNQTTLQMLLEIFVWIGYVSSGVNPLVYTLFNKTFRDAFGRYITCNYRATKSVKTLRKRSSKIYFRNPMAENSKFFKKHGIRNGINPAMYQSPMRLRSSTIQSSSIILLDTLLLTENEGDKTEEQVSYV

Turning to `COc1cccc(CCCN(CCc2ccc(OC)c(OC)c2)CCc2ccc3c(c2)OCO3)c1`, the figures for the Ki in experiment [1], in [2] and in [3] (read-out: Ki) were 200 nM, 4.6 nM and 108 nM, respectively. For the same compound, the inhibition in experiment [4], in experiment [8] and in experiment [9] was above 50% in each case. Also, the values for the Ratio Ki in [5] and in experiment [6] were 43 and 24, respectively. Moreover, in experiment [7], the IC50 (in general, the concentration that inhibits the measured activity by half) is 1260 nM. In experiment [10], the outcome was inactive.

As to `COc1ccc(CCN(CC/C=C\c2ccccc2)Cc2ccc3c(c2)OCO3)cc1OC`, the results for the Ki in experiment [1], in [2] and in [3] (read-out: Ki) were 226 nM, 21 nM and 241 nM, respectively. Moreover, the inhibition in [4], in experiment [8] and in [9] was above 50% throughout. For the same compound, the Ratio Ki in experiment [5] turned out to be 11; in experiment [6], 12. In experiment [7], the IC50 is 6310 nM. The outcome in experiment [10] was inactive.

In the case of `COc1ccc(CCN(CCc2ccc3c(c2)OCO3)Cc2ccccc2)cc1OC`, the Ki (in general, a dissociation constant, usually derived from enzyme kinetics or from competition with a known ligand) in experiment [1] is 3530 nM; in experiment [2], 59 nM; in experiment [3] (read-out: Ki) it was 1090 nM. Moreover, the inhibition in experiment [4], in [8] and in experiment [9] was above 50% throughout. Besides, the Ratio Ki stood at 60 in [5] and 19 in experiment [6]. In [10], the result was inactive.

On to `COc1cccc(CCCN(CCc2ccc(OC)c(OC)c2)Cc2ccc3c(c2)OCO3)c1`, for which the Ki in experiment [1] turned out to be 1510 nM; in experiment [2], 59 nM; in [3] (read-out: Ki), 103 nM. For the same compound, the inhibition in experiment [4], in experiment [8] and in experiment [9] was above 50% each time. The Ratio Ki in experiment [5] was 26; in experiment [6] it was 2. The outcome in experiment [11] and in experiment [10] was inactive.

As to `COc1ccc(CCN(CCCc2cc(OC)c(OC)c(OC)c2)CCc2ccc3c(c2)OCO3)cc1OC`, the values for the Ki in experiment [1], in [2] and in experiment [3] (read-out: Ki) were 146 nM, 4.1 nM and 194 nM, respectively. Moreover, the inhibition in experiment [4], in experiment [8] and in [9] was above 50% throughout. The Ratio Ki in experiment [5] turned out to be 36; in [6], 47. The half-inhibitory concentration (IC50) in [7] is 1260 nM. The outcome in [10] was inactive.

For the compound `COc1ccccc1CCCN(CCc1ccc(OC)c(OC)c1)CCc1ccc2c(c1)OCO2`, the Ki in experiment [1] turned out to be 140 nM; in experiment [2] it was 5.8 nM; in experiment [3] (read-out: Ki), 123 nM. For the same compound, the inhibition in [4], in experiment [8] and in experiment [9] was above 50% each time. Besides, the figures for the Ratio Ki in experiment [5] and in experiment [6] were 24 and 21, respectively. The IC50 in experiment [7] is 10000 nM. For the same compound, the outcome in experiment [10] was inactive.

Turning to `COc1ccc(CCCN(CCc2ccc(OC)c(OC)c2)CCc2ccc3c(c2)OCO3)cc1`, the Ki in experiment [1] was 267 nM; in [2], 6.8 nM; in experiment [3] (read-out: Ki), 206 nM. The inhibition in [4], in [8] and in experiment [9] was above 50% in each case. For the same compound, the Ratio Ki in experiment [5] was 39; in [6] it was 30. The IC50 in experiment [7] was 3980 nM. Further, the result in [10] was inactive.

As for `Cn1ccc2cc3c(cc21)CCN3C(=O)Nc1cccnc1`, the Ki in [2] stood at 21 nM.

For the compound `COc1ccc(CCN(CCc2ccccc2)CCc2ccc3c(c2)OCO3)cc1OC`, the results for the Ki in [1], in [2] and in [3] (read-out: Ki) were 1470 nM, 17 nM and 690 nM, respectively. Further, the inhibition in experiment [4], in [8] and in experiment [9] was above 50% throughout. The values for the Ratio Ki in experiment [5] and in experiment [6] were 87 and 41, respectively. In [7], the concentration for half-maximal inhibition (IC50) is 10000 nM. The outcome in experiment [10] was inactive.

As for `Cc1nc2sccn2c(=O)c1CCN1CCC(=C(c2ccc(F)cc2)c2ccc(F)cc2)CC1` [RITANSERIN], the Ki in [3] (read-out: Ki) was determined as 1.8 nM.

For `COc1ccc(CCN(CCCc2cc(OC)c(OC)c(OC)c2)Cc2ccc3c(c2)OCO3)cc1OC`, the inhibitory constant (Ki) in experiment [1] was 2230 nM; in [2] it was 231 nM; in [3] (hek293), “Not Active”. Besides, in [7], the IC50 was 12600 nM. Further, the inhibition in experiment [8] and in experiment [9] was above 50% each time. For the same compound, the result in experiment [10] was inactive.

Regarding `COc1ccc(OC)c(CCCN(CCc2ccc(OC)c(OC)c2)CCc2ccc3c(c2)OCO3)c1`, the Ki in experiment [1] came to 919 nM; in experiment [2] it was 36 nM; in [3] (read-out: Ki) it was 273 nM. For the same compound, the inhibition in [4], in [8] and in experiment [9] was above 50% in each case. The Ratio Ki in [5] was determined as 26; in experiment [6], 8. Moreover, in experiment [7], the IC50 is 7940 nM. Also, the outcome in experiment [10] was inactive.

(Values after ChEMBL document CHEMBL3734659, “Identification of tris-(phenylalkyl)amines as new selective h5-HT2Breceptor antagonists” (Medchemcomm, 2015).)
